Literature values as cited in patent US8946148B2 (Ambrx, Inc., priority 2007, dated 2015).

Tested on: patients with NIDDM and impaired glucose tolerance

Cc1c(C)c2c(c(C)c1O)CCC(C)(COc1ccc(CC3SC(=O)NC3=O)cc1)O2 (stereo not shown) [Troglitazone]
effect on insulin resistance: reverse insulin resistance
